Source: patent US20170079970A1, “TETRAHYDROQUINOLINE DERIVATIVES AND THEIR USE AS EPAC1 INHIBITORS FOR THE TREATMENT OF MYOCARDIAL INFARCTION INJURY” (INSERM (INSTITUT NATIONAL DE LA SANTÉ ET DE LA RECHERCHE …, priority 2014, published 2017)

System: Isolated mouse adult cardiomyocytes
Assay: Hypoxia and hypoxia-reoxygenation induced cardiomyocyte death, LDH release
Assay type: cell-based
Conditions: pretreated with 10 μM
Protocol: FIG. 4. A pharmacological inhibitor of Epac1, R-CE3F4 prevents hypoxia and hypoxia-reoxygenation induced cardiomyocyte death. Isolated mouse adult cardiomyocytes, pretreated or not with either 10 μM R-CE3F4 or its analogue ΔCHO (10 μM) were exposed to hypoxia (HX) for 4 h followed by a 2 h of reoxygenation period (HX+R). Cell death was determined by LDH release. Results are expressed as means±S.E.M. The bar graph represents the average of 5 independent experiments performed in triplicate. Statistical significance was determined by 2-way ANOVA. * P<0.05 compared with indicated values.
Myocardial infarction was induced in wild-type (WT) versus Epac1^−/− littermates by left anterior descending coronary artery (LAD) ligation for 24 h. Ischemia/Reperfusion was induced by the left anterior descending coronary artery occlusion for 45 min and followed by 24 h of reperfusion. The area at risk (AAR) and infarct size were evaluated by Evans blue and TTC staining, respectively. […] Isolated mouse adult cardiomyocytes pretreated with either R-CE3F4 or (ΔCHO) were exposed to hypoxia (HX) for 4 h followed by a 2 h of reoxygenation period (HX+R). Cell death was determined by LDH release.

Question: What does the source list for `C[C@@H]1CCc2c(cc(Br)c(F)c2Br)N1C=O` [R-CE3F4]?
Answer: HX+R-induced cardiomyocyte death (LDH release) (hypoxia 4 h followed by 2 h reoxygenation (HX+R)): significantly prevented; HX-induced cardiomyocyte death (LDH release) (hypoxia (HX) for 4 h): significantly prevented
